This note sets out measurements from publication PMC5591184 (2017).

The test system of one assay is (TG4T)4 (DNA, G4) TGGGGT. As to the kind of experiment: UV-vis absorption titration. The following applies: 100 mM KCl; 10 mM Tris-HCl, 1 mM EDTA, pH 7.5, room temperature; 2 μM ZnTMPyP4.
Assay [1] concerns T-G10 (DNA, G4) AGGGTTAGGTTTAGGGTTAGGG
As to the kind of experiment: triplet decay, laser flash photolysis. The conditions noted are these: 100 mM NaCl; 10 mM Tris-HCl, 1 mM EDTA, pH 7.5, room temperature; 2 μM ZnTMPyP4; intercalation 53%.

For assay [2], the system named is T-G8 (DNA, G4) AGGGTTATGGTTAGGGTTAGGG
Put plainly: triplet decay, laser flash photolysis. The conditions noted are these: 100 mM NaCl; 10 mM Tris-HCl, 1 mM EDTA, pH 7.5, room temperature; 2 μM ZnTMPyP4; intercalation 63%.

Assay [3] has as its system AG3(T2AG3)3 (DNA, G4) AGGGTTAGGGTTAGGGTTAGGG
Put plainly: UV-vis absorption titration. The following applies: 100 mM NaCl; 10 mM Tris-HCl, 1 mM EDTA, pH 7.5, room temperature; 2 μM ZnTMPyP4.

Assay [4] deals with (G4T4G4)2 (DNA, G4) GGGGTTTTGGGG
Put plainly: UV-vis absorption titration. The following applies: 100 mM NaCl; 10 mM Tris-HCl, 1 mM EDTA, pH 7.5, room temperature; 2 μM ZnTMPyP4.

The structures appear in SMILES notation.

As for `C[n+]1ccc(-c2c3nc(c(-c4cc[n+](C)cc4)c4ccc([n-]4)c(-c4cc[n+](C)cc4)c4nc(c(-c5cc[n+](C)cc5)c5ccc2[n-]5)C=C4)C=C3)cc1.O.[Zn+2]`, the binding constants worked out at 1e+06 M⁻¹ in the assay with (TG4T)4 (DNA, G4) TGGGGT; 3.6e+06 M⁻¹ in assay [3]; 100000 M⁻¹ in assay [4]. Further, the binding entry in assay [1] and in assay [2] was “yes” each time.
